# In publication PMC5389348 (Scientific Reports, 2017):
# pEC50: −log10 of the molar value. Like-named read-outs stand apart in the source and are kept apart here.
# Tests used:
# PDE7A = target: T1, PDE7A (Homo sapiens, UniProt Q13946); assay: PDE enzymatic profile; type: biochemical
# T1 construct: purchased Scottish Biochem (Glasgow, Scotland, UK)
# PDE8B1 = target: T2, PDE8B1 (Homo sapiens, UniProt O95263); assay: PDE enzymatic profile; type: biochemical
# T2 construct: purchased Scottish Biochem (Glasgow, Scotland, UK)
# PDE7B = target: T3, PDE7B (Homo sapiens, UniProt Q9NP56); assay: PDE enzymatic profile; type: biochemical
# T3 construct: purchased Scottish Biochem (Glasgow, Scotland, UK)
# PDE8A1 = target: T4, PDE8A1 (Homo sapiens, UniProt O60658); assay: PDE enzymatic profile; type: biochemical
# T4 construct: purchased Scottish Biochem (Glasgow, Scotland, UK)
# HTLA cells [1] = assay: cAMP determination in cultured cells; type: cell-based, human; details: 100 μM
# Procedure: The cells used in this study (human neuroblastoma cell line HTLA-230, HTLA) were grown in Roswell Park Memorial Institute medium (RPMI), with 0.1 mM non-essential aminoacids and 10% fetal bovine serum. At the end of treatments, intracellular cAMP was measured with the DetectX® Direct Cyclic AMP Enzyme Immunoassay Kit (Arbor Assay, MI, USA), following the manufacturer’s protocol.
# (§1) Results from cells and slices are presented as fold increase and represent mean ± S.E.M. of the number of experiments reported in the figure legend. Normal distribution was evaluated by Kolmogorov–Smirnov test and then data have been analysed by one-way ANOVA followed by Newman-Keuls or Dunnett’s tests, as appropriate.
# PDE4B2 = target: T5, PDE4B2 (Homo sapiens, UniProt Q07343); assay: PDE enzymatic profile; type: biochemical; details: read-out: GEBR-32a % inhibition, recombinant human PDE expressed in baculovirus
# T5 construct: purchased Scottish Biochem (Glasgow, Scotland, UK); host or cells: baculovirus system
# PDE5A1 = target: T6, PDE5A1 (Homo sapiens, UniProt O76074); assay: PDE enzymatic profile; type: biochemical; details: read-out: GEBR-32a % inhibition; 10 μM; recombinant human PDE expressed in baculovirus
# T6 construct: purchased Scottish Biochem (Glasgow, Scotland, UK)
# PDE2A3 = target: T7, PDE2A3 (Homo sapiens, UniProt O00408); assay: PDE enzymatic profile; type: biochemical; details: read-out: GEBR-32a % inhibition, recombinant human PDE expressed in baculovirus, NI = no inhibition
# T7 construct: purchased Scottish Biochem (Glasgow, Scotland, UK)
# HTLA cells [2] = assay: Cytotoxicity, lactate dehydrogenase release; type: cell-based, human; details: 100 μM, 24 hours
# Procedure: (§2) At the end of the incubation period, lactate-dehydrogenase release was measured in conditioned media using the Cytoxicity Detection Kit^PLUS (Roche, Germany) according to manufacturer protocols.
# aged WT and Tg2576 mice = assay: Hippocampal long-term potentiation, fEPSP recordings in slices of chronically treated mice; type: in vivo, mouse; details: chronic 0.03 mg/kg for 23 days
# Procedure: Electrophysiological recordings have been carried out as previously described. […] A concentric bipolar platinum-iridium stimulation electrode and a low-resistance glass recording microelectrode filled with saline solution ([…]) were placed in CA1 stratum radiatum to record the extracellular field excitatory postsynaptic potential (fEPSP). Basal synaptic transmission was assayed by plotting the stimulus voltages against slopes of fEPSP.
# mice = assay: Ketamine/xylazine induced α2-adrenoceptor-mediated anaesthesia test (emetic-like effect); type: in vivo, mouse; details: 0.003–3 mg/kg s.c., adult mice
# Procedure: The outcome measurement was the total time the animals were anesthetized, measured from anaesthesia induction to the righting reflex (i.e. when mice were back on all four paws). In order to reduce the number of animals for experimentation and to get sufficient group sizes, the experiments were performed three times with 2 recovery days in between. […] Normal distribution of data was evaluated by Kolmogorov–Smirnov and one-way ANOVA was used to compare all conditions.
# HTLA cells [3] = assay: Genotoxicity, phosphorylation of histone H2A.X (Western blot); type: cell-based, human; details: 100 μM, 24 hours
# Procedure: as §2
# To evaluate genotoxicity, cells were processed for total protein extraction as described previously. Immunoblots were done according to standard methods, using the following antibodies: mouse monoclonal to gamma H2A.X (2F3, phospho S139) and rabbit polyclonal to Histone H2A.X (Abcam, UK); anti-mouse and anti-rabbit secondary antibodies coupled to horseradish peroxidase (GE Healthcare, UK). Proteins were visualized with an enzyme-linked chemiluminescence detection kit according to the manufacturer’s instructions (GE Healthcare). Chemiluminescence was monitored by exposure to films and signals were analyzed under non-saturating condition with an image densitometer (Bio-Rad, CA, USA).
# PDE9A1 = target: T8, PDE9A1 (Homo sapiens, UniProt O76083); assay: PDE enzymatic profile; type: biochemical; details: read-out: GEBR-32a % inhibition, recombinant human PDE expressed in baculovirus, NI = no inhibition
# T8 construct: purchased Scottish Biochem (Glasgow, Scotland, UK)
# PDE10A1 = target: T9, PDE10A1 (Homo sapiens, UniProt Q9Y233); assay: PDE enzymatic profile; type: biochemical
# T9 construct: purchased Scottish Biochem (Glasgow, Scotland, UK)
# PDE4B1 = target: T10, PDE4B1 (Homo sapiens, UniProt Q07343); assay: PDE enzymatic profile; type: biochemical; details: read-out: GEBR-32a % inhibition, recombinant human PDE expressed in baculovirus
# T10 construct: purchased Scottish Biochem (Glasgow, Scotland, UK); host or cells: baculovirus system
# rat hippocampal slices = assay: cAMP determination in hippocampal slices; type: cell-based; details: forskolin 0.1 μM
# Procedure: Hippocampal slices (400 μm thick) were obtained from adult Sprague Dawley rats using a McIlwain tissue chopper and pre-incubated in physiological medium[52] […] Finally, slices were left in hot medium (90 °C) for 15 min, sonicated and centrifuged at 10000 g for 15 min. The supernatant was used for cAMP determination, using the same kit as above, and the pellet for protein quantification.
# as §1
# WT and Tg2576 mice = assay: Y-maze continuous alternation task; type: in vivo, mouse
# Procedure: The apparatus was made of grey Plexiglas with three arms symmetrically placed together at a 120° angle. At the beginning of the trial, each mouse was placed in one of three arms (randomly divided and balanced) and was then allowed to freely explore the apparatus for 6 minutes. The number of entries into a different arm and the order was measured. An entry was only counted if all four paws of the animal were placed completely inside the arm. When a mouse visited all 3 arms consecutively, it made a triad. In between trials, the apparatus was cleaned with a 70% ethanol solution to avoid olfactory cues. […] Of note, there was no statistical difference between testing sessions (day effect; data not shown) and, therefore, both test sessions were pooled. To measure spatial working memory, the percentage of alternations was calculated by taking the number of triads and dividing it through the maximum possible alternations (total entries minus 2) and multiply this by 100. A score of 50% alternations is considered chance level and, therefore, a significant difference from 50% is indicative of functional working memory. Normal distribution of data was evaluated by Kolmogorov–Smirnov and one-way ANOVA was performed to evaluate differences between the conditions. For each condition, one-sample t-test was used for comparison versus the score of 50%.
# PDE4A1 = target: T11, PDE4A1 (Homo sapiens, UniProt P27815); assay: PDE enzymatic profile; type: biochemical; details: read-out: GEBR-32a % inhibition, recombinant human PDE expressed in baculovirus
# T11 construct: purchased Scottish Biochem (Glasgow, Scotland, UK); host or cells: baculovirus system
# PDE11A1 = target: T12, PDE11A1 (Homo sapiens, UniProt Q9HCR9); assay: PDE enzymatic profile; type: biochemical; details: read-out: GEBR-32a % inhibition, recombinant human PDE expressed in baculovirus, NI = no inhibition
# T12 construct: purchased Scottish Biochem (Glasgow, Scotland, UK)
# PDE4B3 = target: T13, PDE4B3 (Homo sapiens, UniProt Q07343); assay: PDE enzymatic profile; type: biochemical; details: read-out: GEBR-32a % inhibition, recombinant human PDE expressed in baculovirus
# T13 construct: purchased Scottish Biochem (Glasgow, Scotland, UK); host or cells: baculovirus system
# [4] = Pharmacokinetic analysis, plasma and brain; type: in vivo; details: male, mouse
# Procedure: For blood analysis, 25 μL of plasma were transferred into a 1.5 mL Eppendorf tube and were added with 25 μL of methanol and 25 μL of internal standard (500 ng/mL voriconazole), followed by the addition of 100 μL methanol. As for brains, 100 mg of tissue were placed into a plastic tube and added with 500 μL of methanol to facilitate homogenization, which was carried out using a Fluko F6/10 superfine homogenizer for approximately 1 min. […] A 25 μL aliquot of the homogenized samples was transferred into an Eppendorf tube and added with 20 μL of internal standard (500 ng/mL voriconazole) followed by the addition of 100 μL of methanol. […] AUC0-t: the area under the plasma/brain concentration versus time curve from time 0 to the last measurable concentration was calculated by using the linear trapezoidal rule. Cmax: the maximum observed plasma concentration.
# PDE1B = target: T14, PDE1B (Homo sapiens, UniProt Q01064); assay: PDE enzymatic profile; type: biochemical; details: read-out: GEBR-32a % inhibition
# T14 construct: purchased Scottish Biochem (Glasgow, Scotland, UK)
# PDE4A4 = target: T15, PDE4A4 (Homo sapiens, UniProt P27815); assay: PDE enzymatic profile; type: biochemical; details: read-out: GEBR-32a % inhibition, recombinant human PDE expressed in baculovirus
# T15 construct: purchased Scottish Biochem (Glasgow, Scotland, UK); host or cells: baculovirus system
# [5] = Dipyridamole 50 μM, read-out: Comparator % inhibition
# [6] = read-out: GEBR-32a % inhibition, 10 μM, recombinant human PDE expressed in baculovirus
# [7] = read-out: GEBR-32a % inhibition
# [8] = sc, brain, 10 mg/kg s.c., BALB/c mice
# [9] = sc, plasma, 10 mg/kg s.c., BALB/c mice
# T2 sequence (O95263 whole entry): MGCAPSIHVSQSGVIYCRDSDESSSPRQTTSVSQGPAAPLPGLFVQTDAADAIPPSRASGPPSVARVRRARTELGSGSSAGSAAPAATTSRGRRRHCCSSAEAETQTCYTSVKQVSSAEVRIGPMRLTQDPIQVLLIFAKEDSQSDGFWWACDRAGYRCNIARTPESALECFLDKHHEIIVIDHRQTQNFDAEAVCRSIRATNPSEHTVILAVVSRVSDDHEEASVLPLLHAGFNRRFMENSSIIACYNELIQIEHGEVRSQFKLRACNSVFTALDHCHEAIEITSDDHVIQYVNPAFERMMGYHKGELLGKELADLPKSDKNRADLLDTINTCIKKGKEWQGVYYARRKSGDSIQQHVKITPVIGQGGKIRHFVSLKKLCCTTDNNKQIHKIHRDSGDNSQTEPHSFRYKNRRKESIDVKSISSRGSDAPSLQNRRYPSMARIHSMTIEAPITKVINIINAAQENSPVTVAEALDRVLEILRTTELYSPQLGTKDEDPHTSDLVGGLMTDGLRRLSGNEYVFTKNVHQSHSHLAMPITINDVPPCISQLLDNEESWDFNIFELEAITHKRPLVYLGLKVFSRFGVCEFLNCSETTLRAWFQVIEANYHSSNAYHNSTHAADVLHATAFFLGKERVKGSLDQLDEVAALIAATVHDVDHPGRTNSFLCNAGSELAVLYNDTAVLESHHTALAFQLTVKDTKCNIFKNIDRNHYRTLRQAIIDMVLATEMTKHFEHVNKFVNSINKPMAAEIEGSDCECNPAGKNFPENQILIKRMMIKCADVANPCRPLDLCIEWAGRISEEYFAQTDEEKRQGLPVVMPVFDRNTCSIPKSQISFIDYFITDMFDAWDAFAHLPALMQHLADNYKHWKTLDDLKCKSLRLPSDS
# T4 sequence (O60658 whole entry): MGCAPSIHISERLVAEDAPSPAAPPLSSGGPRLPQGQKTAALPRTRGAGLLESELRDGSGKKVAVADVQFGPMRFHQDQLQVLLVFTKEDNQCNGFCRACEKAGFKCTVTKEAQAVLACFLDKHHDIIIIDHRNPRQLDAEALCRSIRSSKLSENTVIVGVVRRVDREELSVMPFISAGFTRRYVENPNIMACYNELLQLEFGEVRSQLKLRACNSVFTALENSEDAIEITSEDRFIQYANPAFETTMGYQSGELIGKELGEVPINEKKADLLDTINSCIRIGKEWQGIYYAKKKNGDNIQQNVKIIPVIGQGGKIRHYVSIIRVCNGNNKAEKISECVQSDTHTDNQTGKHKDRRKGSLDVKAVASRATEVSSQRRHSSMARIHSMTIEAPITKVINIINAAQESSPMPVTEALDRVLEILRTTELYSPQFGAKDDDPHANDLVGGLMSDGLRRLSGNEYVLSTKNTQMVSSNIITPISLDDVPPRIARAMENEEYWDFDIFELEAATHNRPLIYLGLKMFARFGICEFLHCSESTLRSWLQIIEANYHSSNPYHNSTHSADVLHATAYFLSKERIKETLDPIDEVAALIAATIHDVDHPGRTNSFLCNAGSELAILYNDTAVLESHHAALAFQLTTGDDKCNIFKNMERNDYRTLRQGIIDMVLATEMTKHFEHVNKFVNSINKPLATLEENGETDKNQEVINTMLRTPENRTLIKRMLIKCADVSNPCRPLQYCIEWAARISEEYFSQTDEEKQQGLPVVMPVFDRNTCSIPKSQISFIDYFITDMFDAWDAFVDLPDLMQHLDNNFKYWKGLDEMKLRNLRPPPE
# T1 sequence (Q13946 whole entry): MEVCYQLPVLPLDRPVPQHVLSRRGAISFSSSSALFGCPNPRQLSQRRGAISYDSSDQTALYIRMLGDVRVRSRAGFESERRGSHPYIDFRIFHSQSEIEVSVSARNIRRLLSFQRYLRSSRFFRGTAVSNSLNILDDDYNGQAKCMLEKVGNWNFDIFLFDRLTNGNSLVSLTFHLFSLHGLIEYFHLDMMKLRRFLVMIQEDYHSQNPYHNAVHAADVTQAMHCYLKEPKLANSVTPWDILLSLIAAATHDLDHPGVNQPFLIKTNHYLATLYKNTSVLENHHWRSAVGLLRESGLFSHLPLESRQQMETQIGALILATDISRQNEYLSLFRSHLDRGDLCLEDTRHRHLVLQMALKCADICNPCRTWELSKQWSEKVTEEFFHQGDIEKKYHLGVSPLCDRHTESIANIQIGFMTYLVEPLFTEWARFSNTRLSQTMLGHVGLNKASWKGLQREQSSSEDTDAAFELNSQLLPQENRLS
# T3 sequence (Q9NP56 whole entry): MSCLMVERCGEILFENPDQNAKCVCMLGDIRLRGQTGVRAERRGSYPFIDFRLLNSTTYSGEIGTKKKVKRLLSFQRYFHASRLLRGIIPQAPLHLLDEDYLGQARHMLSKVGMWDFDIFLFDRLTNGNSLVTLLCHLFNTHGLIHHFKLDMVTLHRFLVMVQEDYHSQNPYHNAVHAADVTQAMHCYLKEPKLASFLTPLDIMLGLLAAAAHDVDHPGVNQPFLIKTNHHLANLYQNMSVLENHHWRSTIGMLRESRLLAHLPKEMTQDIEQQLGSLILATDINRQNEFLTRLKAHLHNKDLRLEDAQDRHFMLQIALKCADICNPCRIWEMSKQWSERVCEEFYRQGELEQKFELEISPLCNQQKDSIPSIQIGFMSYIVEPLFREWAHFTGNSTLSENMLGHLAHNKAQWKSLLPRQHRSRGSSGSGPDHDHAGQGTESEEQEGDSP
# T9 sequence (Q9Y233 1-779 isoform Q9Y233-1): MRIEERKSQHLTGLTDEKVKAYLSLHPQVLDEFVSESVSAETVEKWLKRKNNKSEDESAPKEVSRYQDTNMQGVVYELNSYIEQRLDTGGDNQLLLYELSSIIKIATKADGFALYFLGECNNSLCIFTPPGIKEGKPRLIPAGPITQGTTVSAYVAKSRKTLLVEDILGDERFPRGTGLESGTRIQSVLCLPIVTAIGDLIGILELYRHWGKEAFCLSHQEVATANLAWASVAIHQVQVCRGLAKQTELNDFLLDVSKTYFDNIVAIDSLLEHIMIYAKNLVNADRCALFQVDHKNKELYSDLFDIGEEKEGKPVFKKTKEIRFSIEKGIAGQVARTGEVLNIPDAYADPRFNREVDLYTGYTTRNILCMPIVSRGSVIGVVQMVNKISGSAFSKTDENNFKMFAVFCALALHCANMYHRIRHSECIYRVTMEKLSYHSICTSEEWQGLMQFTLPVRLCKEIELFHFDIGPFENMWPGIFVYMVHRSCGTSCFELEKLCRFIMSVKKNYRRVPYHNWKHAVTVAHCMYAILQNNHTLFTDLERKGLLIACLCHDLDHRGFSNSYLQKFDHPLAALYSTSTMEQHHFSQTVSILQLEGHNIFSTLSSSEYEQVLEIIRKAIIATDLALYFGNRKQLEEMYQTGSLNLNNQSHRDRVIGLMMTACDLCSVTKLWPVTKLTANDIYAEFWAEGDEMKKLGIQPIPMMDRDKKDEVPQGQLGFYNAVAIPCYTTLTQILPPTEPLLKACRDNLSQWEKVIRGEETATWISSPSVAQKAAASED
# T8 sequence (O76083 whole entry): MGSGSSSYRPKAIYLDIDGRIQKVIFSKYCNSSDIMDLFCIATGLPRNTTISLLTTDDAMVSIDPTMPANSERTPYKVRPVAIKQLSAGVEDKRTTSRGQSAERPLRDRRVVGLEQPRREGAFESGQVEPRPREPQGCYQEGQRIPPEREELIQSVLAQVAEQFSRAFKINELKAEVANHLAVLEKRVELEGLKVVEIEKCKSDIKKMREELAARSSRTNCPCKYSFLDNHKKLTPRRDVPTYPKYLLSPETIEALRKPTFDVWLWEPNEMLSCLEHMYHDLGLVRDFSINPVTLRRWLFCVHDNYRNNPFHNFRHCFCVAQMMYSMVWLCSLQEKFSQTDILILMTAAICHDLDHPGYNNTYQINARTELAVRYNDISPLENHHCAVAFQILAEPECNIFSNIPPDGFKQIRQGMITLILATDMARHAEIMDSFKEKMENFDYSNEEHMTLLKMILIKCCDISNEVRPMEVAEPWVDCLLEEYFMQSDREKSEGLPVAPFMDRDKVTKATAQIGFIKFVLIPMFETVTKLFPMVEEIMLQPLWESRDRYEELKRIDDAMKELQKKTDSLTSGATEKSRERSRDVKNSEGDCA
# T11 sequence (P27815 1-647 isoform P27815-4): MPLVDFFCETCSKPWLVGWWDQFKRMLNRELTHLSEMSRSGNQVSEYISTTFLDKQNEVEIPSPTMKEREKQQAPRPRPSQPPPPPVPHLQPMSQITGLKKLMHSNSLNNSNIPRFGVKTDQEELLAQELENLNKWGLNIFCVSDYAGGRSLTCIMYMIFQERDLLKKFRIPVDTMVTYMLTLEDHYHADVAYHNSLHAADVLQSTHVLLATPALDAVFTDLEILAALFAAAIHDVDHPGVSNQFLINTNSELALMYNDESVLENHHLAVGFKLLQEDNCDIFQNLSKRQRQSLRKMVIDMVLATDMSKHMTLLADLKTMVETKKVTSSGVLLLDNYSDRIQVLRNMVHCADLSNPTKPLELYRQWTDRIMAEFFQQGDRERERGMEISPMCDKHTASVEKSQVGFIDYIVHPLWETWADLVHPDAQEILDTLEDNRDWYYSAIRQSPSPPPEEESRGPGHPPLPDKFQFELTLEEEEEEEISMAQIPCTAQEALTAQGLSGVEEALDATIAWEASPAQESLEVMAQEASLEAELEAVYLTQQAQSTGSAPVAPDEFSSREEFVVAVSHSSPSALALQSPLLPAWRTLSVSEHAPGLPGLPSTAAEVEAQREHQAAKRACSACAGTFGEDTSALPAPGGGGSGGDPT
smiles,measurement,setting,value
"Cc1ccc([N+](=O)[O-])cc1S(=O)(=O)N(C)C [BRL-50481, reference compound]",Comparator % inhibition,PDE7A; BRL-50481 10 μM,78.6 (BRL-50481 10 μM) %
"OCCN(CCO)c1nc(N2CCCCC2)c2nc(N(CCO)CCO)nc(N3CCCCC3)c2n1 [Dipyridamole, reference compound]",inhibition at 50 µM,PDE8B1; [5],57.4%
same,inhibition at 50 µM,PDE7B; [5],47.3%
same,inhibition at 50 µM,PDE8A1; [5],64.4%
OC(CN1CCOCC1)Cn1ccc(-c2ccc(OC(F)F)c(OC3CCCC3)c2)n1 (centres unmarked) [GEBR-32a],inhibition at 10 µM,PDE8B1; [6],23.5%
same,inhibition at 10 µM,PDE7B; [6],8.61%
same,inhibition at 10 µM,PDE8A1; [7],< 0%
same,increase of the forskolin-induced elevation of cAMP in cultured cells,HTLA cells [1]; forskolin 1 μM,12 fold
same,increase of cAMP with respect to controls,HTLA cells [1]; without forskolin,2.5 fold
same,inhibition at 10 µM,PDE4B2,26.3%
same,inhibition at 10 µM,PDE5A1,4.97%
same,inhibition at 10 µM,PDE2A3,< 0%
same,"cytotoxicity, lactate dehydrogenase release",HTLA cells [2],did not produce any significant effect
same,hippocampal LTP (fEPSP),aged WT and Tg2576 mice; aged Tg2576 mice,rescue the LTP deficit
same,hippocampal LTP (fEPSP),aged WT and Tg2576 mice; aged WT mice,"clear, though not significant, enhancement of LTP"
same,duration of anaesthesia (emetic-like effect),mice,did not significantly influence the duration of anaesthesia
same,"genotoxicity, phosphorylation of histone H2A.X",HTLA cells [3],did not produce any significant effect
same,inhibition at 10 µM,"PDE7A; read-out: GEBR-32a % inhibition, 10 μM, recombinant human PDE expressed in baculovirus, NI = no inhibition",< 0%
same,inhibition at 10 µM,PDE9A1,< 0%
same,inhibition at 10 µM,PDE10A1; [7],< 0%
same,inhibition at 10 µM,PDE4B1,41.6%
same,pEC50,"rat hippocampal slices; Rattus norvegicus, 0.1–100 μM, read-out: apparent EC50, increase of forskolin-induced cAMP production",5.74
same,elevation of forskolin-induced cAMP production,rat hippocampal slices; highest concentration tested (100 μM),4 fold
same,"percentage of alternations, Y-maze","WT and Tg2576 mice; adult WT mice, administered 30 min before trial, data not shown",not further improved
same,"percentage of alternations, Y-maze","WT and Tg2576 mice; aged Tg2576 mice, acute 0.0003–0.3 mg/kg s.c. 30 min before trial",not able to induce any improvement
same,"percentage of alternations, Y-maze","WT and Tg2576 mice; aged Tg2576 mice, chronic 0.03 mg/kg for up to 23 days",alternations significantly higher than 50%
same,"percentage of alternations, Y-maze","WT and Tg2576 mice; aged WT mice, acute, all doses tested 0.0003–0.3 mg/kg s.c. 30 min before trial",significantly ameliorated the performance
same,inhibition at 10 µM,PDE4A1,41%
same,inhibition at 10 µM,PDE11A1,< 0%
same,inhibition at 10 µM,PDE4B3,39.4%
same,Tmax,"[4]; BALB/c, plasma and brain, subcutaneous, 10 mg/kg, absorption and distribution to the brain",20 min
same,half-life,"[4]; BALB/c, plasma and brain, subcutaneous, 10 mg/kg, elimination, read-out: half-life (converted)",~60 min
same,Kp,"[4]; in vivo, sc, 10 mg/kg s.c., BALB/c mice, read-out: AUC0-t Ratio (Brain/Plasma)",2.71
same,AUC(0-t),[4]; [8],2330 ng·h/mL
same,Cmax,[4]; [8],2610 ng/g
same,Tmax,[4]; [8],19.8 min
same,half-life,"[4]; sc, brain, 10 mg/kg s.c., BALB/c mice, read-out: t1/2 (converted)",57 min
same,AUC(0-t),[4]; [9],861 ng·h/mL
same,Cmax,[4]; [9],993 ng/mL
same,Tmax,[4]; [9],19.8 min
same,half-life,"[4]; sc, plasma, 10 mg/kg s.c., BALB/c mice, read-out: t1/2 (converted)",57 min
same,inhibition at 10 µM,PDE1B,10.7%
same,inhibition at 10 µM,PDE4A4,11%
"COc1ccc(Cc2nccc3cc(OC)c(OC)cc23)cc1OC [Papaverine, reference compound]",inhibition at 1 µM,"PDE10A1; Papaverine 1 μM, read-out: Comparator % inhibition",90.7%
